Reference: PMC11951083, “Highly Specific Miniaturized Fluorescent Monoacylglycerol Lipase Probes Enable Translational Research” (Journal of the American Chemical Society, 2025)
Where two headings read alike, the source gives them in different places.

Columns and labels:
[1] = molecular target: T1, NanoLuc luciferase MAGL fusion protein (Homo sapiens, UniProt Q99685); assay: Cellular MAGL NanoBRET target engagement assay in live HEK293 cells; assay type: cell-based
T1 sequence (Q99685 1-303): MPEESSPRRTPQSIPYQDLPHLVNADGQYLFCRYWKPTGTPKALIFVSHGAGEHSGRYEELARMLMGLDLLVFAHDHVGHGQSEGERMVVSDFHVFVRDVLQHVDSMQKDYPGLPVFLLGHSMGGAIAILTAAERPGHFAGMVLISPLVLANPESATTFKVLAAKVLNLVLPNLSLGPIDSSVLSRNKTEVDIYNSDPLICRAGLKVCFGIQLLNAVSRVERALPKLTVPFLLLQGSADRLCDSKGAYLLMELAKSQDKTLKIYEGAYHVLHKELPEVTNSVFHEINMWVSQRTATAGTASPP
Protocol: This assay was performed as first described before.20
Compounds were profiled by a novel cellular MAGL NanoBRET™ Target Engagement assay, which measures the apparent affinity of test compounds by competitive displacement of a Roche -developed Tracer (WO2021058443, Example 2 121, or probe 4a, respectively), reversibly bound to a NanoLuc ® luciferase MAGL fusion protein in cells.
A HEK293A stable cell line expressing NanoLuc_MAGL was established at Roche and assigned as HEK293A_NanoLuc_MAGL clone #43. A fixed concentration of tracer is added to cells expressing the NanoLuc®_MAGL fusion protein to generate a BRET reporter complex. The introduction of competing compounds results in a dose -dependent decrease in NanoBRET™ energy transfer, which allows quantification of the intracellular affinity of the target protein for the test compound.
HEK293A_NanoLuc_MAGL clone #43 cells were cultured in DMEM (Gibco 31966) with 10% FBS and 800 ug/ml G418. The NanoBRET assay was performed by seeding 5000 cells/well in Costar low - volume white 384-well plate in assay buffer (1% FBS in HBSS), followed by adding the tracer (50 nM Example 21 or 100 nM 4a final concentration) and serial dilutions of test compounds. After 2 hours of incubation, Nanoluciferase substrates and extracellular inhibitors were added following the manufacturer's protocol (Promega, #N2520), and the NanoBRET signaling were quantified with the Paradigm (Molecular Devices).

[2] = molecular target: GSK3beta (h) (Homo sapiens, UniProt P49841); assay: GSK3beta (h); conditions: read-out: Inhibition GSK3beta (h)
[3] = tested on: HIV-1 protease; assay: HIV-1 protease; conditions: 10 µM
[4] = molecular target: Abl kinase (h) (Homo sapiens, UniProt P00519); assay: Abl kinase (h); conditions: read-out: Inhibition Abl kinase (h)
[5] = molecular target: acetylcholinesterase (h) (Homo sapiens, UniProt P22303); assay: acetylcholinesterase (h); conditions: read-out: Inhibition acetylcholinesterase (h)
[6] = molecular target: T2, A3 (h) (Homo sapiens, UniProt P0DMS8); assay: A3 (h) (agonist radioligand); conditions: read-out: Inhibition A3 (h) (agonist radioligand)
T2 sequence (P0DMS8 1-318): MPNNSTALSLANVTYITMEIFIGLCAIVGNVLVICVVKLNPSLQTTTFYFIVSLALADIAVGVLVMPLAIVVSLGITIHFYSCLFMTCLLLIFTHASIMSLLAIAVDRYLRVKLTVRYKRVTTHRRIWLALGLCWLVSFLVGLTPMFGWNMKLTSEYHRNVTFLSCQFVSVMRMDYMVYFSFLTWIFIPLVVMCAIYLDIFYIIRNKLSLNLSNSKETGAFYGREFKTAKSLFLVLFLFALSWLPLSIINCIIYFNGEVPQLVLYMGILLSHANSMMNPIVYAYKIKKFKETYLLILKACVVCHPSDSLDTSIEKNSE

[7] = molecular target: T3, GR (h) (Homo sapiens, UniProt P04150); assay: GR (h) (agonist radioligand); conditions: read-out: Inhibition GR (h) (agonist radioligand)
T3 sequence (P04150 1-777): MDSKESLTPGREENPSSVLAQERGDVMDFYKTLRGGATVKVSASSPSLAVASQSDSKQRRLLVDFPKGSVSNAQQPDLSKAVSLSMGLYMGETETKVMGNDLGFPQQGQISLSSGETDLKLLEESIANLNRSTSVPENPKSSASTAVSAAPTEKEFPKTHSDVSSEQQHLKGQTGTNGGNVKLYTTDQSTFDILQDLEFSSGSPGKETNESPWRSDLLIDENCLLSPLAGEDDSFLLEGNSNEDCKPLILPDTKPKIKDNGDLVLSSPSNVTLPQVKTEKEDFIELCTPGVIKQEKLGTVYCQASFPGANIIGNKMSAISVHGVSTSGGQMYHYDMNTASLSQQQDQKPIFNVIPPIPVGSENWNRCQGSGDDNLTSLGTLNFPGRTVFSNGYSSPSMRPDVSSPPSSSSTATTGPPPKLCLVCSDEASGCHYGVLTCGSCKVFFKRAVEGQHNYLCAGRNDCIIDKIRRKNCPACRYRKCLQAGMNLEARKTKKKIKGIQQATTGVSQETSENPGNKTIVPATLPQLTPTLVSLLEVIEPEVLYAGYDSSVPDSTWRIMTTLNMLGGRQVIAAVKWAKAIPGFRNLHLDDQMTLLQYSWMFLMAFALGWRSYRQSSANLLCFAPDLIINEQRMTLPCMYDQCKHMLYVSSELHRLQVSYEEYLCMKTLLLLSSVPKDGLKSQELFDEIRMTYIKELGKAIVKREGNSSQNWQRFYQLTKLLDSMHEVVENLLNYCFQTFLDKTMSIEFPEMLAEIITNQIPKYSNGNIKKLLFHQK

[8] = molecular target: CB1 (h) (Homo sapiens, UniProt P21554); assay: CB1 (h) (agonist radioligand); conditions: read-out: Inhibition CB1 (h) (agonist radioligand)
[9] = molecular target: 5-HT2A (h) (Homo sapiens, UniProt P28223); assay: 5-HT2A (h) (agonist radioligand); conditions: read-out: Inhibition 5-HT2A (h) (agonist radioligand)
[10] = molecular target: beta2 (h) (Homo sapiens, UniProt P07550); assay: beta2 (h) (antagonist radioligand); conditions: read-out: Inhibition beta2 (h) (antagonist radioligand)
[11] = molecular target: Estrogen ER alpha (h) (Homo sapiens, UniProt P03372); assay: Estrogen ER alpha (h) (agonist radioligand); conditions: read-out: Inhibition Estrogen ER alpha (h) (agonist radioligand)
[12] = tested on: Ca2+ channel (L, diltiazem site); assay: Ca2+ channel (L, diltiazem site) (antagonist radioligand); conditions: 10 µM
[13] = live HEK293 cells, read-out: IC50 nanoBRET

Sequence of Abl kinase (h) (P00519 whole entry): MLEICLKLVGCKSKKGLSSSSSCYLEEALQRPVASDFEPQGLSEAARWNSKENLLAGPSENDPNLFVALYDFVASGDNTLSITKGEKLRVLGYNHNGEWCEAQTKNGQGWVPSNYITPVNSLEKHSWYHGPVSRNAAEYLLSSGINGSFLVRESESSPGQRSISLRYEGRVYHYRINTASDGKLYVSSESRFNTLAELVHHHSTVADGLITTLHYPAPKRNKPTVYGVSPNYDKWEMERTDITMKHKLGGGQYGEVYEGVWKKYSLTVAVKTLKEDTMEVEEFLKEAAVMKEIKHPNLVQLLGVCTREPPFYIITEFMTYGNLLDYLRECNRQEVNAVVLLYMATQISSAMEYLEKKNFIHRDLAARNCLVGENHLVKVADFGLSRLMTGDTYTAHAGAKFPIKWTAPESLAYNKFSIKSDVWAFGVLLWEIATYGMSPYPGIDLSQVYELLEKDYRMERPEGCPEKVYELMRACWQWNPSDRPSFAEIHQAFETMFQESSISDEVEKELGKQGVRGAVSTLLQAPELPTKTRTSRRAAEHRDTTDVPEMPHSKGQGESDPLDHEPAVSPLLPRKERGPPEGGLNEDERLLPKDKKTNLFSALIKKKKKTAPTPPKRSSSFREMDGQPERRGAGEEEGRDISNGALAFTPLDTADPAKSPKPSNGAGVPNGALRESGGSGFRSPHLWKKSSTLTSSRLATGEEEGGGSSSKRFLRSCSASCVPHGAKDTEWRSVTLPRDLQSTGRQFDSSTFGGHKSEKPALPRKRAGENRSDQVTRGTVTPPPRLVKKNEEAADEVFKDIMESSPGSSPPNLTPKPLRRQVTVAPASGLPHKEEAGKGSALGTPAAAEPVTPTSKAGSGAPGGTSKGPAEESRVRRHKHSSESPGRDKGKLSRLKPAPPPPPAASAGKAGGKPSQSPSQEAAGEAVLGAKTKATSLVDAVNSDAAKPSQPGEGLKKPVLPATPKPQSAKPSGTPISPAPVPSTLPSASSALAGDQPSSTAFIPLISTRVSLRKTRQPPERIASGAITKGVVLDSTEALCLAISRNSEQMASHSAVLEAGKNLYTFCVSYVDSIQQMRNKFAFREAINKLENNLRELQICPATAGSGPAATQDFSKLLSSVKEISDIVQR
Sequence of CB1 (h) (P21554 whole entry): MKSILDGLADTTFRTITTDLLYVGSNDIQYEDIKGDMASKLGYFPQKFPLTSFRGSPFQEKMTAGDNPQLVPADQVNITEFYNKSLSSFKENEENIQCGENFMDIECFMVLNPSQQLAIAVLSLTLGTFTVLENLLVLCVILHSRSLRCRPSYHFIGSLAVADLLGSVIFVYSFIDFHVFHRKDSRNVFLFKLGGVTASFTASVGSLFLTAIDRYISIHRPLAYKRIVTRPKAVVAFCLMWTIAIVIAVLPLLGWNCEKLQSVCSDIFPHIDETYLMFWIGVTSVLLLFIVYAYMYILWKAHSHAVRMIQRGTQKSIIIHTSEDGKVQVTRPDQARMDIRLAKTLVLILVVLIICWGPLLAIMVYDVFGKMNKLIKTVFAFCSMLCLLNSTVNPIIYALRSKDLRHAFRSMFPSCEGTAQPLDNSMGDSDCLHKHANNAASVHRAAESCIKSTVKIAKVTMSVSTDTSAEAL
Sequence of Estrogen ER alpha (h) (P03372 whole entry): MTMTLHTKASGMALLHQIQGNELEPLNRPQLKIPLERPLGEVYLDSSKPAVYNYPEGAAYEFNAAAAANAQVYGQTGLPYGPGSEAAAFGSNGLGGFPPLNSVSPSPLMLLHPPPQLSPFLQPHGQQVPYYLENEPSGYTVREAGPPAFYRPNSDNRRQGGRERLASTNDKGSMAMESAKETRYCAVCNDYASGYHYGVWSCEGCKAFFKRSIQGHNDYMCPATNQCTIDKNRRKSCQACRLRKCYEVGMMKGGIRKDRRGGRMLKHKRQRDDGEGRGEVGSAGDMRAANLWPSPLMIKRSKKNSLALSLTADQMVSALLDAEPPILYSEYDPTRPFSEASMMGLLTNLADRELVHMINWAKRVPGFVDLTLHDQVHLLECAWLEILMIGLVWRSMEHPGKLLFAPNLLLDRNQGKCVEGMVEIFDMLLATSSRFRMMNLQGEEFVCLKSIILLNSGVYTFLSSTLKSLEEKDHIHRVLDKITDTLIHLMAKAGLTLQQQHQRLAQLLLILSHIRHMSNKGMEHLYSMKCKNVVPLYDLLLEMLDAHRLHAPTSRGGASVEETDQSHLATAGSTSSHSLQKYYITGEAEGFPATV
Sequence of acetylcholinesterase (h) (P22303 32-614): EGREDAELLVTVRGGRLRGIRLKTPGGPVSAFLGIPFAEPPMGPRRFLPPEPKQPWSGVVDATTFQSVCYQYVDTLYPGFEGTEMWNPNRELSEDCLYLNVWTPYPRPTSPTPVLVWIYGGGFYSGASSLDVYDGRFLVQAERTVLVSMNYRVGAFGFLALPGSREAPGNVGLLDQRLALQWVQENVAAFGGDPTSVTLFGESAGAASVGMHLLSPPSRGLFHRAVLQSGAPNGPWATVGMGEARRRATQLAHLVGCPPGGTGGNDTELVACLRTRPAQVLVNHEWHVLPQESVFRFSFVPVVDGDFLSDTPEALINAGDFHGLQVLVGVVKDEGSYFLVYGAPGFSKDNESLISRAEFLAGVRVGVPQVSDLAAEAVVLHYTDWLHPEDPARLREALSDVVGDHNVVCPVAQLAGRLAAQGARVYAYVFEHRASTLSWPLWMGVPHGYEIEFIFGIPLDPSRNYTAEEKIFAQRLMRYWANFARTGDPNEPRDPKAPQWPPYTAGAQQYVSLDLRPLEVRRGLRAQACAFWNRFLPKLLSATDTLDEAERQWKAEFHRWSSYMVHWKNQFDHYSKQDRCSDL
Sequence of GSK3beta (h) (P49841 whole entry): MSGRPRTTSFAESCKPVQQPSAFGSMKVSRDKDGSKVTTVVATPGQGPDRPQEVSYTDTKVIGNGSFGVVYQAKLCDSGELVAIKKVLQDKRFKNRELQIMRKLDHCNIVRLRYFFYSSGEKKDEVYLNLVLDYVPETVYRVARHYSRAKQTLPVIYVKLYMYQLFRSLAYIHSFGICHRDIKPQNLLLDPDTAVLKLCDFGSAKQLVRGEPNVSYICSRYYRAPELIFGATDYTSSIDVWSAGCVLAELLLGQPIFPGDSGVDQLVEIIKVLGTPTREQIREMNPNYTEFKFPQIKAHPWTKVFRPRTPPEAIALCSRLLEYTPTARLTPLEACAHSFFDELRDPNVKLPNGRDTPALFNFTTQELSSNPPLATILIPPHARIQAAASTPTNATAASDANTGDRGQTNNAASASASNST
Sequence of beta2 (h) (P07550 whole entry): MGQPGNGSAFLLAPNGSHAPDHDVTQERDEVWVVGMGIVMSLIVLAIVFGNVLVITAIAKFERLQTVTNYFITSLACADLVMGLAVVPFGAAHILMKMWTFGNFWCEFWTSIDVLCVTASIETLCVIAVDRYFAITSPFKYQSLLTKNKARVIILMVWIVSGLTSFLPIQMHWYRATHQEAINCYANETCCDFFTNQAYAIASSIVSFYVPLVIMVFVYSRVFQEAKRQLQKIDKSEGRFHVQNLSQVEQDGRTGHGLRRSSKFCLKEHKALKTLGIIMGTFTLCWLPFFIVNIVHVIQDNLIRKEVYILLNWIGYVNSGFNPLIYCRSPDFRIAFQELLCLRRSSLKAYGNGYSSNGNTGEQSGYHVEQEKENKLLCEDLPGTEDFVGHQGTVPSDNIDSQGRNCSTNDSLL
Sequence of 5-HT2A (h) (P28223 whole entry): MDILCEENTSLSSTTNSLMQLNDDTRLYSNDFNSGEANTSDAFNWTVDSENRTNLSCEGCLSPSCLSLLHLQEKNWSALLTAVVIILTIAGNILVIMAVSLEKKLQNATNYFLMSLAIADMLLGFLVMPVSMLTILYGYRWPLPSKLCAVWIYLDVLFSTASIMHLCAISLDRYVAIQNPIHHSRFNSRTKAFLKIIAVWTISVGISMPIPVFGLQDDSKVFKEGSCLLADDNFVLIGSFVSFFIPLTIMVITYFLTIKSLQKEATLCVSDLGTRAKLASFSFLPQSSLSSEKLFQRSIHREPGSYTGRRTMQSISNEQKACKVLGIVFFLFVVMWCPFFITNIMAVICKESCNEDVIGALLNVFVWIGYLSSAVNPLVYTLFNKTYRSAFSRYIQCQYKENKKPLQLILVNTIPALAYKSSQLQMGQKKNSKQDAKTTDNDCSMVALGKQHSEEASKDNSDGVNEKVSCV

Structure (SMILES)	IC50 [1, 13] [nM]	inhibition at 10 µM [2] [%]	Inhibition HIV-1 protease [3]	inhibition at 10 µM [4] [%]	inhibition at 10 µM [5] [%]	inhibition at 10 µM [6] [%]	inhibition at 10 µM [7] [%]	inhibition at 10 µM [8] [%]	inhibition at 10 µM [9] [%]	inhibition at 10 µM [10] [%]	inhibition at 10 µM [11] [%]	Inhibition Ca2+ channel (L, diltiazem site) (antagonist radioligand) [12]	IC50 [1] [nM]
O=C(OC(C(F)(F)F)C(F)(F)F)N1CC2(CC(CC3=C4C=CC=[N+]4[B-](F)(F)n4cccc43)C2)C1 [Compound 2]	720	-1.7	-1,90%	-10.5	-2.9	45	9.1	-16.1	-36.2	-0.6	-0.8	-14,00%	
O=C1CO[C@H]2CCN(C(=O)N3CC4(CC(CC5=C6C=CC(c7ccc[nH]7)=[N+]6[B-](F)(F)n6cccc65)C4)C3)C[C@H]2N1 [Compound 4a]		-15	23,80%	-53.1	1.8		48.1	-2.7	18.5	-6.2	-2.5	6,20%	
O=C(O[C@H](CO)C(F)(F)F)N1CC2(CC(CC3=C4C=CC=[N+]4[B-](F)(F)n4cccc43)C2)C1 [Compound 1]	276	3.2	10,30%	-1.9	-8.2	-1.6	13.9	4.4	-13.2	-3.1	17.8	20,60%	
O=C(OC(C(F)(F)F)C(F)(F)F)N1CC2(CC(CC3=C4C=CC(c5ccc[nH]5)=[N+]4[B-](F)(F)n4cccc43)C2)C1 [Compound 2a]		-1.5	8,30%	-2.9	2.5	34.8	26.3	6.3	-6.8	1.8	-13.7	9,70%	
O=C(N1CC2(CC(CC3=C4C=CC=[N+]4[B-](F)(F)n4cccc43)C2)C1)N1CC2(CC(n3cnc(C4CC4)n3)C2)C1 [Compound 5]		-1.2	5,20%	25.6	-14.4	17.7	17.1	9.9	-9.2	5.4	35	1,70%	85
O=C1CO[C@H]2CCN(C(=O)N3CC4(CC(CC5=C6C=CC=[N+]6[B-](F)(F)n6cccc65)C4)C3)C[C@H]2N1 [Compound 4]	196												
